Source: ChEMBL document CHEMBL4043147, “9,19-Cycloartenol glycoside G3 from Cimicifuga simplex regulates immune responses by modulating Th17/Treg ratio” (Bioorg Med Chem, 2017)
Activity calls are given as the source filed them. No cut-off for these calls is given here.

Assays:
[1] = biological target: Tyrosine-protein kinase JAK1/JAK3 (Mus musculus) (UniProt P52332+Q62137); experiment: Inhibition of JAK1/JAK3 in C57BL/6 mouse CD4-positive T cell assessed as reduction in IL-4-induced STAT6 phosphorylation at 1 to 10 uM pretreated for 1 hr followed by IL-4 addition after 15 mins by Western blot analysis
[2] = test system: CD4-positive T cell; experiment: Reduction in RORgammat/IL-17 expression in human PBMC derived allogeneic CD4-positive T cells co-cultured with […] CD14 positive monocyte derived dendritic cells at 10 uM by flow cytometric analysis; type: functional, cell-based
[3] = test system: Mus musculus; experiment: Anti-inflammatory activity in IL-23 induced mouse psoriasis-like skin inflammation model assessed as reduction in IL-1beta mRNA levels at 2 to 10 uM applied topically starting 1 day prior to IL-23 induction and continuing every other day for 14 days measured after 24 hrs post last dose by real-time PCR analysis; type: functional
[4] = test system: CD4-positive T cell; experiment: Reduction in ratio of RORgammat/IL-17 expression to FoxP3/IL-10 expression in human PBMC derived allogeneic CD4-positive T cells co-cultured with […] CD14 positive monocyte derived dendritic cells at 10 uM by flow cytometric analysis; type: functional, cell-based
[5] = test system: CD4-positive T cell; experiment: Inhibition of C57BL/6 mouse CD4-positive T cell differentiation assessed as decrease in GATA-3 mRNA level 0.1 to 10 uM by real-time PCR analysis; type: functional, cell-based
[6] = test system: Mus musculus; experiment: Anti-inflammatory activity in IL-23 induced mouse psoriasis-like skin inflammation model assessed as reduction in IL-6 mRNA levels at 2 to 10 uM applied topically starting 1 day prior to IL-23 induction and continuing every other day for 14 days measured after 24 hrs post last dose by real-time PCR analysis; type: functional
[7] = biological target: Tyrosine-protein kinase JAK1/JAK2 (Mus musculus) (UniProt P52332+Q62120); experiment: Inhibition of JAK1/JAK2 in C57BL/6 mouse CD4-positive T cell assessed as reduction in IFNgamma-induced STAT1 phosphorylation at 1 to 10 uM pretreated for 1 hr followed by IFNgamma addition after 15 mins by Western blot analysis
[8] = Inhibition of C57BL/6 mouse CD4-positive T cell differentiation; type: functional, cell-based; details: C57BL/6, CD4-positive T cell
[9] = test system: CD4-positive T cell; experiment: Inhibition of C57BL/6 mouse CD4-positive T cell differentiation assessed as decrease in RORgammat mRNA level 0.1 to 10 uM by real-time PCR analysis; type: functional, cell-based
[10] = Inhibition of C57BL/6 mouse CD4-positive T cell differentiation at 50 uM relative to control; type: functional; details: C57BL/6, CD4-positive T cell
[11] = species on record: Mus musculus; experiment: Inhibition of […]/TYK2 in C57BL/6 mouse CD4-positive T cell assessed as reduction in IL-12-induced STAT4 phosphorylation at 1 to 10 uM pretreated for 1 hr followed by IL-12 addition after 30 mins by Western blot analysis
[12] = test system: Mus musculus; experiment: Anti-inflammatory activity in IL-23 induced mouse psoriasis-like skin inflammation model assessed as reduction in IL-10 mRNA levels at 2 to 10 uM applied topically starting 1 day prior to IL-23 induction and continuing every other day for 14 days measured after 24 hrs post last dose by real-time PCR analysis; type: functional
[13] = test system: Mus musculus; experiment: Anti-inflammatory activity in IL-23 induced mouse psoriasis-like skin inflammation model assessed as reduction in CCL17 mRNA levels at 2 to 10 uM applied topically starting 1 day prior to IL-23 induction and continuing every other day for 14 days measured after 24 hrs post last dose by real-time PCR analysis; type: functional
[14] = test system: Th17; experiment: Decrease in IL-17A mRNA level in C57BL/6 mouse Th17 cells 0.1 to 10 uM by real-time PCR analysis; type: functional, cell-based
[15] = test system: Th1; experiment: Reduction in IFN-gamma production in C57BL/6 mouse Th1 cells at 10 uM by ELISA; type: functional, cell-based
[16] = test system: Mus musculus; experiment: Anti-inflammatory activity in IL-23 induced mouse psoriasis-like skin inflammation model assessed as reduction in CCL20 mRNA levels at 2 to 10 uM applied topically starting 1 day prior to IL-23 induction and continuing every other day for 14 days measured after 24 hrs post last dose by real-time PCR analysis; type: functional
[17] = test system: Treg cell; experiment: Reduction in IL-10 production in C57BL/6 mouse Treg cells at 10 uM by ELISA; type: functional, cell-based
[18] = test system: CD4-positive T cell; experiment: Inhibition of C57BL/6 mouse CD4-positive T cell differentiation assessed as decrease in T-bet mRNA level 0.1 to 10 uM by real-time PCR analysis; type: functional, cell-based
[19] = test system: Mus musculus; experiment: Anti-inflammatory activity in IL-23 induced mouse psoriasis-like skin inflammation model assessed as reduction in IFN-gamma mRNA levels at 2 to 10 uM applied topically starting 1 day prior to IL-23 induction and continuing every other day for 14 days measured after 24 hrs post last dose by real-time PCR analysis; type: functional
[20] = test system: Mus musculus; experiment: Anti-inflammatory activity in IL-23 induced mouse psoriasis-like skin inflammation model assessed as reduction in CXCL1 mRNA levels at 2 to 10 uM applied topically starting 1 day prior to IL-23 induction and continuing every other day for 14 days measured after 24 hrs post last dose by real-time PCR analysis; type: functional
[21] = test system: Splenocyte; experiment: Cytotoxicity against mouse splenocytes after 48 hrs by MTT assay; type: cell-based
[22] = test system: Mus musculus; experiment: Anti-inflammatory activity in IL-23 induced mouse psoriasis-like skin inflammation model assessed as reduction in IL-1alpha mRNA levels at 2 to 10 uM applied topically starting 1 day prior to IL-23 induction and continuing every other day for 14 days measured after 24 hrs post last dose by real-time PCR analysis; type: functional
[23] = test system: CD4-positive T cell; experiment: Reduction in FoxP3/IL-10 expression in human PBMC derived allogeneic CD4-positive T cells co-cultured with […] CD14 positive monocyte derived dendritic cells at 10 uM by flow cytometric analysis; type: functional, cell-based
[24] = test system: Mus musculus; experiment: Anti-inflammatory activity in IL-23 induced mouse psoriasis-like skin inflammation model assessed as reduction in dermal inflammatory infiltrates at 2 to 10 uM applied topically starting 1 day prior to IL-23 induction and continuing every other day for 14 days measured after 24 hrs post last dose by hematoxylin and eosin staining based assay; type: functional
[25] = test system: Mus musculus; experiment: Anti-inflammatory activity in IL-23 induced mouse psoriasis-like skin inflammation model assessed as reduction in CCR6 mRNA levels at 2 to 10 uM applied topically starting 1 day prior to IL-23 induction and continuing every other day for 14 days measured after 24 hrs post last dose by real-time PCR analysis; type: functional
[26] = test system: Th17; experiment: Reduction in IL-17A production in C57BL/6 mouse Th17 cells at 10 uM by ELISA; type: functional, cell-based
[27] = species on record: Mus musculus; experiment: Inhibition of […]/TYK2 in C57BL/6 mouse CD4-positive T cell assessed as reduction in IL-12-induced STAT1 phosphorylation at 1 to 10 uM pretreated for 1 hr followed by IL-12 addition after 30 mins by Western blot analysis
[28] = test system: Mus musculus; experiment: Anti-inflammatory activity in IL-23 induced mouse psoriasis-like skin inflammation model assessed as reduction in CCL27 mRNA levels at 2 to 10 uM applied topically starting 1 day prior to IL-23 induction and continuing every other day for 14 days measured after 24 hrs post last dose by real-time PCR analysis; type: functional
[29] = Inhibition of C57BL/6 mouse CD4-positive T cell differentiation at 6.25 uM relative to control; type: functional; details: C57BL/6, CD4-positive T cell

Chain of Tyrosine-protein kinase JAK1/JAK2 (Mus musculus) (P52332 whole entry, looked up): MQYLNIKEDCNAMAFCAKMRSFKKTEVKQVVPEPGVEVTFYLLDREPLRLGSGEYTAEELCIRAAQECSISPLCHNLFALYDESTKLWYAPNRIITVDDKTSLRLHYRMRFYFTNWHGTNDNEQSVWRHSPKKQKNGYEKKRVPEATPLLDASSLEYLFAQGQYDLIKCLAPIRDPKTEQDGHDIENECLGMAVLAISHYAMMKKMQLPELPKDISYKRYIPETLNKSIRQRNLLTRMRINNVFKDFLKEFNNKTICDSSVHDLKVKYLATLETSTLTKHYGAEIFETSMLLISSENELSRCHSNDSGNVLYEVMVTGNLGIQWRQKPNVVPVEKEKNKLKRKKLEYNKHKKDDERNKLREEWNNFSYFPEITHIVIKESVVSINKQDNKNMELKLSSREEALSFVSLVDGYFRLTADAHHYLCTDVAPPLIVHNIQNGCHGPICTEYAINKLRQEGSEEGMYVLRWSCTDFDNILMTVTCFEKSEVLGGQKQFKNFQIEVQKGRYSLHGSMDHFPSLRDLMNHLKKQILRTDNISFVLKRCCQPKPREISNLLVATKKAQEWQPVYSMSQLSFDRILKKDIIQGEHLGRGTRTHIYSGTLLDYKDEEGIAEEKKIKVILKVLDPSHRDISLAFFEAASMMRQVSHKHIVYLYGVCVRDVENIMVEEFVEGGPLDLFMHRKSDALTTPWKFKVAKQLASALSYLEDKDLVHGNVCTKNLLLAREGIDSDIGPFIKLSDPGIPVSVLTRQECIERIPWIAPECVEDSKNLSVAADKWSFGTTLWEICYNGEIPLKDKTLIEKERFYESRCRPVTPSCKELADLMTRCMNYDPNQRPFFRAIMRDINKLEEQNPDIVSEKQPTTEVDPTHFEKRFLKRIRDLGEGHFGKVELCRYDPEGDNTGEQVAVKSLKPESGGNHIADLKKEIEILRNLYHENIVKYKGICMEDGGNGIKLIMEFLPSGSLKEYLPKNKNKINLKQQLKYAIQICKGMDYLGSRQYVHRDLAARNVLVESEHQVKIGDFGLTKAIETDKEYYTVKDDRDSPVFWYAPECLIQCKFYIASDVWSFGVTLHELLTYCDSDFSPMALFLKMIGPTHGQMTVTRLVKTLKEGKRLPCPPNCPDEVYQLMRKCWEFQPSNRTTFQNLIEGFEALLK
Chain of Tyrosine-protein kinase JAK1/JAK2 (Mus musculus) (Q62120 whole entry, looked up): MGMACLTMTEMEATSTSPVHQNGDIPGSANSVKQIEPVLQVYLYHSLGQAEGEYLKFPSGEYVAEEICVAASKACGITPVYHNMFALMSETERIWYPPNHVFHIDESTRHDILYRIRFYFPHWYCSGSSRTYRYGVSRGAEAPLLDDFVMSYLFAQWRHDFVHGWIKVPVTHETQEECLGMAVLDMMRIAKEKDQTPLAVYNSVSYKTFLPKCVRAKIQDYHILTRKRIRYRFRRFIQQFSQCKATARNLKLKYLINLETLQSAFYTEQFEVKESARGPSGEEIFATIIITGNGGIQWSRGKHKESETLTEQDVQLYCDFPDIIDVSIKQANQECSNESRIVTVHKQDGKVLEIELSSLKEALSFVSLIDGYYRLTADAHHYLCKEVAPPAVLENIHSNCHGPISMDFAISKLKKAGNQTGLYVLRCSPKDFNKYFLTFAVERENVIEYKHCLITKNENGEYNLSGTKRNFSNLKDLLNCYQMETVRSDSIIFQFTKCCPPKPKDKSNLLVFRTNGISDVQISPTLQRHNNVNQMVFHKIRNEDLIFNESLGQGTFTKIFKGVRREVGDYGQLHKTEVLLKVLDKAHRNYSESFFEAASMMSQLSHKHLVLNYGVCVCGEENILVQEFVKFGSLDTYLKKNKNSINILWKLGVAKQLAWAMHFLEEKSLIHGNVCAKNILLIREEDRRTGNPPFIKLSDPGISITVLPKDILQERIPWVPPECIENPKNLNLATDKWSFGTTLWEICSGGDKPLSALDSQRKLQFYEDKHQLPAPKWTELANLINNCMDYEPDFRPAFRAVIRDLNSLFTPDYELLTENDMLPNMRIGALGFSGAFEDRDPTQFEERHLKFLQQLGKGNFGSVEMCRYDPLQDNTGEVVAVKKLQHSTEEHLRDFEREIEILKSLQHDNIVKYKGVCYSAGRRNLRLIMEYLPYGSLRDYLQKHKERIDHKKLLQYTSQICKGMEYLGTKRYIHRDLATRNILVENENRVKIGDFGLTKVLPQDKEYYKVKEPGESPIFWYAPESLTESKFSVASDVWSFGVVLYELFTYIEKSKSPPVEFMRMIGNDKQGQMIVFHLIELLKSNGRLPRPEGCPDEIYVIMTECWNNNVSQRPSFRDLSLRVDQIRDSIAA
Chain of Tyrosine-protein kinase JAK1/JAK3 (Mus musculus) (P52332 whole entry, looked up): as the sequence (P52332 whole entry, looked up) above
Chain of Tyrosine-protein kinase JAK1/JAK3 (Mus musculus) (Q62137 whole entry, looked up): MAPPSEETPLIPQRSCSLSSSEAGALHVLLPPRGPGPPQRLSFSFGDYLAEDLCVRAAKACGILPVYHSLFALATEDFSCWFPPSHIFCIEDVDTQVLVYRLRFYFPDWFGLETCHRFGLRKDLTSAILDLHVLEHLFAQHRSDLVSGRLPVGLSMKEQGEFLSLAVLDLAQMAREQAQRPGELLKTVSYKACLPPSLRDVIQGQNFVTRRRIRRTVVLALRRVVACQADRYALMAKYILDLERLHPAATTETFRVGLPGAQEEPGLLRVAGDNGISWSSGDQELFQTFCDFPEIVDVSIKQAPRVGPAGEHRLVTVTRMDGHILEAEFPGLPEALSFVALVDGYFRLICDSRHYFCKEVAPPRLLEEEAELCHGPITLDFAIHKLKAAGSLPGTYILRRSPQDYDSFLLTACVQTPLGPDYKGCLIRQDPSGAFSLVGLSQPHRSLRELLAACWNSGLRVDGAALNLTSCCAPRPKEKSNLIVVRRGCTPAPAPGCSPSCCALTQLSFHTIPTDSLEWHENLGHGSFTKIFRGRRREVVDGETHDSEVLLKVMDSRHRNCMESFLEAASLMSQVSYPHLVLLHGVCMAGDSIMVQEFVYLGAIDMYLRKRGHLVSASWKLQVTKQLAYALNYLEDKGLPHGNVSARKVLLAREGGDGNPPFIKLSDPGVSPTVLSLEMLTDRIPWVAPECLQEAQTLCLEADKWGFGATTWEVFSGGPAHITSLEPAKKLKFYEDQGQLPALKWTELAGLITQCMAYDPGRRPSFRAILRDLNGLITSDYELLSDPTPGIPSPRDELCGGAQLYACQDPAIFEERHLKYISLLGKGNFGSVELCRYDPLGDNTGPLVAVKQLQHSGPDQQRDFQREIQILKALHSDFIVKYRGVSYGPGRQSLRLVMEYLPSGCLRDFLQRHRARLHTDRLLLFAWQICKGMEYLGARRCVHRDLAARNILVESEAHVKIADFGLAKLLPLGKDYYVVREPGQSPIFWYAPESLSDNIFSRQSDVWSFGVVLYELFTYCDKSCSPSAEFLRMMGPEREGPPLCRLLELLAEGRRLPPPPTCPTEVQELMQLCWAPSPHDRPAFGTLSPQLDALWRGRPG

CC(=O)O[C@@H]1C[C@@]23C[C@@]24CC[C@H](O[C@@H]2O[C@H](CO)[C@H](O)[C@H](O)[C@H]2O)C(C)(C)[C@@H]4CC[C@H]3[C@]2(C)C[C@]3(O)O[C@H](C(=O)[C@@H]4OC4(C)C)[C@@H](C)[C@@H]3[C@@]12C
inhibition [1]: Active | Activity [2]: Active | Activity [3]: Active | Activity [4]: Active | inhibition [5]: Active | Activity [6]: Active | inhibition [7]: Active | IC50 [8]: 8.69 µM | inhibition [9]: Active | inhibition at 50 µM [10]: 98.3% | inhibition [11]: Active | Activity [12]: inactive | Activity [13]: Active | Activity [14]: Active | Activity [15]: Active | Activity [16]: Active | Activity [17]: Active | inhibition [18]: Active | Activity [19]: Active | Activity [20]: Active | CC50 [21]: 88.8 µM | Activity [22]: Active | Activity [23]: Active | Activity [24]: Active | Activity [25]: Active | Activity [26]: Active | inhibition [27]: Active | Activity [28]: Active | inhibition at 6.25 µM [29]: 29.6%
